Test results taken from the supplement of paper PMC11451515.

Legend:
Settings in all cases: 48 h
SEM cells [1] = assay: cell viability relative to DMSO control; higher = less cytotoxic
Summary of the method: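 Before seeding, each leukemia line was adapted for at least four passages in each medium. NOMO1 or SEM cells (500 cells/well) and P12-Ichikawa cells (1000 cells/well) went into 1536-well plates at 5 μl, then received library compounds in DMSO by pin dosing across 11 threefold concentrations, 47 μM to 0.79 nM. Readout was CellTiter-Glo One luminescence after 48 h at 37°C, and viability is given as a per-plate percentage of DMSO wells, with cell-free wells as background.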

NOMO1 = assay: AUC of viability dose-response curve (% viability x log10 dose units); higher = less sensitive
Summary of the method: (§1)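 Area under the curve was integrated by trapezoidal rule from a log-logistic fit of normalised viability, with curves exceeding full viability scaled and quality-control failures removed. The fit had four parameters over log10 doses. Viability came from CellTiter-Glo One luminescence, normalised per plate to DMSO and cell-free wells, after leukemia cells adapted to each medium (500 or 1000 cells/well, 1536-well plates) were exposed to library compounds in DMSO for 48 h at 37°C. The 11 threefold doses ran from 47 μM to 0.79 nM.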

P12-Ichikawa = assay: as above
Summary of the method: as §1

SEM cells [2] = assay: as above
Summary of the method: as §1

[3] = RPMI 5 mM glucose + 10% dialyzed FBS

SMILES	cell viability (SEM cells [1]; RPMI 5 mM glucose + 10% FBS, 0.000781 µM)	cell viability (SEM cells [1]; RPMI 5 mM glucose + 10% FBS, 0.00234 µM)	cell viability (SEM cells [1]; RPMI 5 mM glucose + 10% FBS, 0.00702 µM)	cell viability (SEM cells [1]; RPMI 5 mM glucose + 10% FBS, 0.0211 µM)	cell viability (SEM cells [1]; RPMI 5 mM glucose + 10% FBS, 0.0632 µM)	cell viability (SEM cells [1]; RPMI 5 mM glucose + 10% FBS, 0.19 µM)	cell viability (SEM cells [1]; RPMI 5 mM glucose + 10% FBS, 0.569 µM)	cell viability (SEM cells [1]; RPMI 5 mM glucose + 10% FBS, 1.71 µM)	cell viability (SEM cells [1]; RPMI 5 mM glucose + 10% FBS, 5.12 µM)	cell viability (SEM cells [1]; RPMI 5 mM glucose + 10% FBS, 15.4 µM)	cell viability (SEM cells [1]; RPMI 5 mM glucose + 10% FBS, 46.1 µM)	AUC of viability dose-response curve (NOMO1; HPLM + 10% dialyzed FBS)	AUC of viability dose-response curve (NOMO1; RPMI 5 mM glucose + 10% FBS)	AUC of viability dose-response curve (NOMO1; [3])	AUC of viability dose-response curve (P12-Ichikawa; HPLM + 10% dialyzed FBS)	AUC of viability dose-response curve (P12-Ichikawa; RPMI 5 mM glucose + 10% FBS)	AUC of viability dose-response curve (P12-Ichikawa; [3])	AUC of viability dose-response curve (SEM cells [2]; HPLM + 10% dialyzed FBS)	AUC of viability dose-response curve (SEM cells [2]; RPMI 5 mM glucose + 10% FBS)	AUC of viability dose-response curve (SEM cells [2]; [3])	cell viability (SEM cells [1]; HPLM + 10% dialyzed FBS, 0.000781 µM)	cell viability (SEM cells [1]; HPLM + 10% dialyzed FBS, 0.00234 µM)	cell viability (SEM cells [1]; HPLM + 10% dialyzed FBS, 0.00702 µM)	cell viability (SEM cells [1]; HPLM + 10% dialyzed FBS, 0.0211 µM)	cell viability (SEM cells [1]; HPLM + 10% dialyzed FBS, 0.0632 µM)	cell viability (SEM cells [1]; HPLM + 10% dialyzed FBS, 0.19 µM)	cell viability (SEM cells [1]; HPLM + 10% dialyzed FBS, 0.569 µM)	cell viability (SEM cells [1]; HPLM + 10% dialyzed FBS, 1.71 µM)	cell viability (SEM cells [1]; HPLM + 10% dialyzed FBS, 5.12 µM)	cell viability (SEM cells [1]; HPLM + 10% dialyzed FBS, 15.4 µM)	cell viability (SEM cells [1]; HPLM + 10% dialyzed FBS, 46.1 µM)
CCC1=C2C=C(OC(=O)N3CCC(CC3)N4CCCCC4)C=CC2=NC\5=C1CN6C(=O)\C7=C(/C=C56)[C@@](O)(CC)C(=O)OC7	110%	127%	104%	106%	49.5%	104%	107%	65.2%	15.4%	13.1%	9.69%	380	380	380	324	313	326	366	356	353	–	–	–	–	–	–	–	–	–	–	–
O=C(NCc1ccccc1)[C@H](Cc1ccccc1)NC(=O)[C@H]1O[C@@H]1C(=O)NCCc1ccc(O)cc1	–	–	–	–	–	–	–	–	–	–	–	431	459	425	468	461	463	464	463	453	–	–	–	–	–	–	–	–	–	–	–
CCN1CCN(Cc2ccc(-c3cc4c(N[C@H](C)c5ccccc5)ncnc4[nH]3)cc2)CC1	–	–	–	–	–	–	–	–	–	–	–	439	460	457	448	463	461	384	375	388	130%	124%	125%	132%	116%	116%	109%	98.5%	74.7%	51.1%	8.14%
CN1CCN(c2cccc(Nc3nc4c(-c5ccc([S+](C)(=O)[O-])cc5)cccn4n3)c2)CC1	–	–	–	–	–	–	–	–	–	–	–	438	449	450	453	427	435	379	375	372	–	–	–	–	–	–	–	–	–	–	–
CCC(c1ccc(O)cc1)C(CC)c1ccc(O)cc1 (stereo unspecified)	–	–	–	–	–	–	–	–	–	–	–	428	448	463	452	464	466	459	457	466	–	–	–	–	–	–	–	–	–	–	–
Cl.O[C@@H](CNC[C@H](O)[C@H]1CCc2cc(F)ccc2O1)[C@@H]1CCc2cc(F)ccc2O1	–	–	–	–	–	–	–	–	–	–	–	439	446	415	465	441	448	450	444	455	–	–	–	–	–	–	–	–	–	–	–
